The record followed here is patent publication US6670339B1, “Use of sulfated oligosaccharides in lowering blood triglyceride levels” (The Australian National University, priority 1997, dated 2003).

For assay [1], the target named is T1, bovine milk lipoprotein lipase (Bos taurus, UniProt P11151).
T1 construct: purified from bovine milk as previously described; from tissue; host or cells: bovine milk
T1 sequence (P11151 29-478): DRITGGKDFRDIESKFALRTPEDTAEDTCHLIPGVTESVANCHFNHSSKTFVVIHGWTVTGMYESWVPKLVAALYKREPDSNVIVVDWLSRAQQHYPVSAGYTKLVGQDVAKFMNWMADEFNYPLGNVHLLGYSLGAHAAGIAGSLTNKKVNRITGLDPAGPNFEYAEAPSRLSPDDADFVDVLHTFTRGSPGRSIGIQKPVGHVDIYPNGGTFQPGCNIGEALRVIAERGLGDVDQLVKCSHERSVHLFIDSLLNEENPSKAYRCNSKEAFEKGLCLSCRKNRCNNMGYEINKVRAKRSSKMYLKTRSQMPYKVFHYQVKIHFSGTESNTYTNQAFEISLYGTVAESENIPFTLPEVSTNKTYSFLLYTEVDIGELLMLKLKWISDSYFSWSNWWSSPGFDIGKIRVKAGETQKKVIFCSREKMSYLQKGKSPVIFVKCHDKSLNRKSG
The assay is described as follows: Inhibition of binding of biotinylated heparin/heparan sulfate to immobilised lipoprotein lipase. To be noted: for inhibitory activity on lipoprotein lipase binding to heparin/heparan sulfate, in words: summary of Table 1. On the procedure:
As a more rapid and direct means of measuring the ability of different sulfated oligosaccharides to release lipoprotein lipase from the endothelium, an in vitro assay for this effect was developed. The assay involved immobilising lipoprotein lipase (10 μg/ml in PBS, 15 hr, 4° C.), purified from bovine milk as previously described^12, in 96 well plastic microplates (50 μl/well). Non-specific binding sites were then blocked by the addition of 200 μl/well of PBS containing 1% (w/v) bovine serum albumin (BSA) for 2 hr at 4° C. Following three washes with 200 μl/well of PBS/0.05% Tween 20 (PBST), 50 μl/well of either biotinylated bovine lung heparin or biotinylated porcine mucosal heparan sulfate (Sigma), used at either 1 or 10 μg/ml, was added and incubated for 2 hr at 4° C. Following three washes with PBST, 50 μl/well of europeum-streptavidin (1 ng/ml in PBS/1% BSA) was added for 1 hr at 4° C., the plate again washed three times with PBST, enhancement solution (50 μl/well) added and bound europeum measured by time resolved fluorescence detection using a Delfia Research Fluorometer (Wallac, Turku, Finland). Inhibition assays measured the ability of different sulfated oligosacchandes to inhibit the binding of biotinylated heparan/heparin sulfate to the immobilised lipoprotein lipase enzyme.

The test system of assay [2] is serum triglyceride levels. Kind of assay: Serum triglyceride lowering by glycosaminoglycans and sulfated oligosaccharides in mice. It counts as in vivo, CBA/h female mice. The following applies: 50 mg/kg s.c., 2 hours after injection. On the procedure: FIG. 3. Ability of different glycosaminoglycans and sulfated oligosaccharides to lower serum triglyceride levels in CBA mice. Compounds were injected s.c. at a dose of 50 mg/kg, blood samples taken 2 hours later and assayed for triglyceride content. Each histogram is the mean±SEM (n=3) for each treatment.
Mice (CBA/h female mice 8-10 weeks old) were injected s.c. with a range of glycosaminoglycans and sulfated oligosaccharides at a dose of 50 mg/kg and 2 hours later mice were anaesthetised, blood was collected via cardiac puncture and allowed to clot and serum triglyceride levels measured using a commercially available kit (Sigma, Triglyceride—GPO-Trinder). […] The only other compound with some activity was suramin, a sulfonated compound which has previously been used as an angiogenesis and heparanase inhibitor.

Setting [3] is: biotinylated bovine lung heparin 1 μg/ml.
Setting [4] is: biotinylated bovine lung heparin 10 μg/ml.

Like-named read-outs stand apart in the source and are kept apart here.

For the compound `O=S(=O)(O)OC[C@H]1O[C@@](COS(=O)(=O)O)(O[C@H]2O[C@H](COS(=O)(=O)O)[C@@H](OS(=O)(=O)O)[C@H](OS(=O)(=O)O)[C@H]2OS(=O)(=O)O)[C@@H](OS(=O)(=O)O)[C@@H]1OS(=O)(=O)O` [Sucrose octasulfate, reference compound], in assay [1] (setting [3]), the “IC50, inhibition of binding of Biotinylated Heparin (1 μg/ml) to lipoprotein lipase” value was more than 200 µg/mL. Besides, the “inhibitory activity on lipoprotein lipase binding to heparin/heparan sulfate, in words” value in assay [1] is “lacked activity”. In assay [2], the “effect on serum triglyceride levels, in words” value (“effect” below) is “small but significant enhancement”.

As to `Cc1ccc(C(=O)Nc2ccc(S(=O)(=O)O)c3cc(S(=O)(=O)O)cc(S(=O)(=O)O)c23)cc1NC(=O)c1cccc(NC(=O)Nc2cccc(C(=O)Nc3cc(C(=O)Nc4ccc(S(=O)(=O)O)c5cc(S(=O)(=O)O)cc(S(=O)(=O)O)c45)ccc3C)c2)c1` [Suramin, reference compound], the IC50 is more than 77.1 µM in assay [1] (biotinylated bovine lung heparin 1 μg/ml, read-out: IC50, inhibition of binding of Biotinylated Heparin (1 μg/ml) to lipoprotein lipase) and more than 77.1 µM in assay [1] (biotinylated bovine lung heparin 10 μg/ml, read-out: IC50, inhibition of binding of Biotinylated Heparin (10 μg/ml) to lipoprotein lipase). For the same compound, in assay [1], the “inhibitory activity on lipoprotein lipase binding to heparin/heparan sulfate, in words” value is reported as “lacked activity”. For the same compound, in assay [2], the “effect” value was “some activity”.

Cellohexaose: the “IC50, inhibition of binding of Biotinylated Heparin (10 μg/ml) to lipoprotein lipase” value in assay [1] (setting [4]) came to 12 µg/mL. Also, in assay [1], the “inhibitory activity on lipoprotein lipase binding to heparin/heparan sulfate, in words” value is reported as “exhibited activity”.

Turning to “maltoheptaose sulfate [Maltoheptaose SO4]”, in assay [1] (setting [3]), the “IC50, inhibition of binding of Biotinylated Heparin (1 μg/ml) to lipoprotein lipase” value is 3 µg/mL. In addition, in assay [1] (setting [4]), the “IC50, inhibition of binding of Biotinylated Heparin (10 μg/ml) to lipoprotein lipase” value turned out to be 12 µg/mL. The “inhibitory activity on lipoprotein lipase binding to heparin/heparan sulfate, in words” value in assay [1] is on record as “inhibitory”. Moreover, the “effect” value in assay [2] is recorded as “significantly lowered triglyceride levels”.

maltohexaose sulfate [Maltohexaose SO4]: the “IC50, inhibition of binding of Biotinylated Heparin (1 μg/ml) to lipoprotein lipase” value in assay [1] (setting [3]) amounted to 3 µg/mL. For the same compound, the “IC50, inhibition of binding of Biotinylated Heparin (10 μg/ml) to lipoprotein lipase” value in assay [1] (setting [4]) came out at 6 µg/mL. The “inhibitory activity on lipoprotein lipase binding to heparin/heparan sulfate, in words” value in assay [1] is “potent inhibitors”. Besides, the “effect” value in assay [2] is “significantly lowered triglyceride levels”.
